Drawing on patent US7994326B2 (Northwestern University, priority 2003, dated 2011), this text covers Ki, IC50 and Selectivity n/i for 22 compounds.

Experiment [1] has as its target T1, murine iNOS (Mus musculus, UniProt P29477).
T1 construct: made in house; host or cells: E. coli (plasmid pCWiNOS)
Briefly: NOS enzyme inhibitory assay (hemoglobin capture), iNOS. The experiment is classed as biochemical. Particulars: Table 1a; for Ki: apparent Ki calculated from IC50, Km […], read-out: calc. Ki iNOS; for IC50: murine iNOS, 10 μM L-arginine. An excerpt:
(§1) All of the NOS isoforms used were recombinant enzymes overexpressed in E. coli from different sources. Nitric oxide formation from NOS was monitored by the hemoglobin capture assay as described in the literature.
Enzyme inhibitory assay. All of the NOS isoforms used are recombinant enzymes overexpressed in E. coli from different sources.
iNOS expression: An overnight culture of pCWiNOS was used to inoculate (1:100) larger cultures of Terrific Broth media (12 g/L tryptone, 24 g/L yeast extract, 4 mL/L glycerol, 17 mM KH2PO4, and 72 mM K2HPO4) containing 50 μg/mL ampicillin and 34 μg/mL chloramphenicol at 37° C. At an OD600 of ˜0.5, the culture was cooled to 25° C. and induced by the addition of 1 mM IPTG (final concentration). After approximately 24 h of growth at 25° C., the cells were pelleted at 5300×g, transferred to 50 mL conical tubes, and stored at −80° C.
iNOS purification: Cell pellets from 1.0 L of culture were resuspended in sonication buffer (50 mM Hepes, pH 7.4, 10% glycerol, 10 μg/mL benzamidine, 5 μg/mL leupeptin, 0.2 mM of PMSF, and 1 μg/mL each of pepstatin, chymostatin, and antipain) and lysed by sonication. Centrifugation for 20 min at 13000×g yielded supernatant which contained iNOS active enzyme. iNOS supernatant was loaded onto 1 g of a 2′,5′-ADP-Sepharose 4B resin column. The column was then washed with 20 ml iNOS purification buffer (10 mM K2HPO4, 10% glycerol, 0.5 mM L-arginine, pH 7.4) and 10 μM BH4. Inducible NOS was eluted with 30 ml iNOS purification buffer supplemented with 10 mM 2′(3′)-AMP, 10 μM BH4, and 0.3 M NaCl. The eluent was concentrated to 5 ml by ultrafiltration. The above concentration operation was repeated three times more with 10 ml Hepes buffer supplemented with 10 μM BH4, to give purified inducible NOS.
Nitric oxide formation from NOS was monitored by the hemoglobin capture assay as described previously. (Hevel, J. M.; Marletta, M. A. Nitric Oxide Synthase Assays. Methods Enzymol. 1994, […], 250-258).
(§2) The selectivity of an inhibitor is defined as the ratio of the respective Ki values.

Experiment [2] concerns the target T2, rat nNOS (Rattus norvegicus, UniProt P29476).
T2 construct: made in house; host or cells: E. coli (plasmid pCWnNOS)
Briefly: NOS enzyme inhibitory assay (hemoglobin capture), nNOS. The experiment is classed as biochemical. The settings on record: Table 1a; for Selectivity n/i: Ki(iNOS)/Ki(nNOS); for Ki: apparent Ki calculated from IC50, Km […], read-out: calc. Ki nNOS; for IC50: rat nNOS, 10 μM L-arginine. As to the method:
as §1
After approximately 48 h of post-induction incubation in the dark at 25° C. the cells were pelleted at 5300×g, transferred to 50 mL conical tubes, and stored at −80° C.
nNOS purification: Cell pellets from 2.0 L of culture were resuspended in sonication Buffer A (50 mM Tris Base Buffer, pH 8.0, 10% glycerol), 2 mg/ml lysozyme. 0.5 mM L-arginine. 1 mM EDTA, 0.1 mM PMSF, 1 µg/ml antipain, and 1 μM each of leupeptin, […], and […]) and lysed by sonication. Centrifugation for 1 h at 100000×g yielded supernatant which contained nNOS active enzyme. The supernatant was brought to 2 mM CaCl2 and the protein was loaded onto a 15 ml calmodulin-Sepharose column equilibrated with Buffer A containing 2 mM CaCl2. The column was washed with 100 ml Buffer B (50 mM Hepes, 5 mM DTT, and […]) containing 2 mM CaCl2, 0.5 mM L-arginine, and 10 μM BH4, and eluted with 30 ml Buffer B supplemented with 0.3 M NaCl, 5 mM EGTA, 0.5 mM L-arginine, and 10 μM BH4. The protein was then loaded onto a 5 ml 2′,5′-ADP-Sepharose column equilibrated with Buffer B supplemented with 0.3 M NaCl, 0.5 mM L-arginine, and 10 μM BH4. The column was washed with 25 ml Buffer B containing 0.5 mM L-arginine and 10 μM BH4, and then 25 ml of Buffer B only supplemented with 10 μM BH4 (without L-arginine). Neuronal NOS was eluted with 20 ml Buffer B supplemented with 10 mM 2′(3′)-AMP, 10 μM BH4 and 0.3 M NaCl. The 20 ml eluent was then concentrated to 5 ml by ultrafiltration. The above concentration operation was repeated twice more with 10 ml Buffer B supplemented with 10 µM BH4 to give the purified neuronal NOS.
Nitric oxide formation from NOS was monitored by the hemoglobin capture assay as described previously.
as §2

On to `Cl.Cl.Cl.Cl.Nc1cccc(CC2CNCC2NCC2CCCN2)n1` (centres unmarked) [Compound P-24], for which, in experiment [1], the Ki is 306 µM and the IC50 was found to be 674 µM. Further, in experiment [2], the Selectivity n/i amounted to 21.15, the Ki is 14.5 µM and the IC50 is 126 µM.

For `NCCN1C[C@H](Cc2cccc(N)n2)[C@H](NCCCO)C1` (racemic) [Compound P-10], in experiment [1], the Ki is 1250 µM and the IC50 stood at 2760 µM.

Consider `Cl.Cl.Cl.Cl.Nc1cccc(C[C@@H]2CNC[C@@H]2NC[C@@H]2CCCN2)n1` [Compound P-41], for which, in experiment [1], the Ki is 26.4 µM and it took 58.3 µM to reach half-maximal inhibition (IC50). Further, in experiment [2], the Selectivity n/i was found to be 4.67, the Ki is 5.66 µM and the IC50 came out at 49.2 µM.

With `Cl.Cl.Cl.Nc1cccc(C[C@H]2CN(Cc3ccccc3)C[C@@H]2NCCCO)n1` (racemic) [Compound P-3], in experiment [1], the Ki is 1750 µM and 3860 µM corresponded to half-maximal inhibition (IC50). Besides, in experiment [2], the Selectivity n/i was 9.19, the Ki was 190 µM and 1650 µM corresponded to half-maximal inhibition (IC50).

Take `Cl.Cl.Cl.Cl.NCCNC1CC(N)CC1Cc1cccc(N)n1` (racemic) [Compound P-45]: in experiment [1], the Ki was 71.5 µM and the IC50 is 158 µM. In experiment [2], the Selectivity n/i was found to be 15.51, the Ki was 4.61 µM and the IC50 amounted to 40.1 µM.

Regarding `Cl.Cl.Cl.Cl.Nc1cccc(CC2CNCC2NCC2CCCN2)n1` (centres unmarked) [Compound P-23], in experiment [1], the Ki is 104 µM and the IC50 is 229 µM. Moreover, in experiment [2], the Selectivity n/i is reported as 9.30, the Ki is 11.2 µM and 96.9 µM corresponded to half-maximal inhibition (IC50).

Regarding `Cl.Cl.Cl.Cl.Nc1cccc(C[C@H]2CNC[C@H]2NC[C@H]2CCCN2)n1` [Compound P-42], in experiment [1], the Ki is 70 µM and the IC50 worked out at 154 µM. Moreover, in experiment [2], the Selectivity n/i is 31.97, the Ki is 2.19 µM and the IC50 amounted to 19 µM.

On to `Cl.Cl.Cl.Cl.NCCN1CC(Cc2cccc(N)n2)C(NCCCc2ccccc2)C1` (racemic) [Compound P-7], for which, in experiment [1], the Ki is 438 µM and the IC50 stood at 965 µM. Besides, in experiment [2], the Selectivity n/i worked out at 109.99, the Ki is 3.98 µM and half-maximal inhibition (IC50) was put at 34.6 µM.

Take `Cl.Cl.Cl.Cl.Nc1cccc(C[C@@H]2CNC[C@@H]2NC[C@H]2CCCN2)n1` [Compound P-43]: in experiment [1], the Ki is 42 µM and the IC50 was 92.5 µM. In experiment [2], the Selectivity n/i was 9.22, the Ki was 4.55 µM and half-maximal inhibition (IC50) required 39.5 µM.

As to `Cl.Cl.Cl.Nc1cccc(C[C@H]2CN(Cc3ccccc3)C[C@@H]2NCCCc2ccccc2)n1` (racemic) [Compound P-2], in experiment [1], the Ki is 60.1 µM and the IC50 worked out at 132 µM. Besides, in experiment [2], the Selectivity n/i is 4.3, the Ki was 14 µM and 122 µM corresponded to half-maximal inhibition (IC50).

In the case of `Cl.Cl.Cl.NCCN1C[C@H](Cc2cccc(N)n2)[C@@H](O)C1` (racemic) [Compound P-6], in experiment [1], the Ki was 105 µM and half-maximal inhibition (IC50) was put at 231 µM. Also, in experiment [2], the Selectivity n/i worked out at 8.41, the Ki is 12.4 µM and the IC50 was found to be 108 µM.

Turning to `Cl.Cl.Cl.Cl.NCCN1CC(Cc2cccc(N)n2)C(NCCCc2ccccc2)C1` (racemic) [Compound P-9], in experiment [1], the Ki was 295 µM and inhibition was half-maximal at 649 µM (IC50). Further, in experiment [2], the Selectivity n/i is 10.28, the Ki is 28.6 µM and the IC50 came to 249 µM.

Regarding `Nc1cccc(CC2CNCC2NCCCO)n1` (racemic) [Compound P-13], in experiment [1], the Ki is 234 µM and half-maximal inhibition (IC50) required 515 µM.

Consider `NCCN1CC(Cc2cccc(N)n2)C(NCCCO)C1` (racemic) [Compound P-8], for which, in experiment [1], the Ki was 652 µM and the IC50 is 1440 µM.

As for `Cl.Cl.Nc1cccc(CC2CN(Cc3ccccc3)CC2O)n1` (racemic) [Compound P-1], in experiment [1], the Ki was 919 µM and 2030 µM corresponded to half-maximal inhibition (IC50). Besides, in experiment [2], the Selectivity n/i came out at 11.71, the Ki is 78.5 µM and the IC50 was found to be 682 µM.

As for `Cl.Cl.Cl.Nc1cccc(CC2CN(Cc3ccccc3)CC2NCCCO)n1` (racemic) [Compound P-5], in experiment [1], the Ki is 2520 µM and it took 5560 µM to reach half-maximal inhibition (IC50). In experiment [2], the Selectivity n/i turned out to be 8.27, the Ki was 305 µM and the IC50 was 2650 µM.

In the case of `Cl.Cl.Cl.Cl.NCCNC1CC(N)CC1Cc1cccc(N)n1` (racemic) [Compound P-44], in experiment [1], the Ki was 51.9 µM and it took 114 µM to reach half-maximal inhibition (IC50). In experiment [2], the Selectivity n/i is recorded as 21.02, the Ki was 2.47 µM and the IC50 is 21.5 µM.

As to `Nc1cccc(C[C@H]2CNC[C@H]2NCCCO)n1` (racemic) [Compound P-28], in experiment [1], the Ki is 143 µM and half-maximal inhibition (IC50) required 315 µM.

For `Cl.Cl.Cl.Cl.Nc1cccc(C[C@@H]2CNC[C@H]2NC[C@H]2CCCN2)n1` [Compound P-26], in experiment [1], the Ki was 170 µM and half-maximal inhibition (IC50) required 375 µM. For the same compound, in experiment [2], the Selectivity n/i is reported as 13.82, the Ki was 12.3 µM and it took 107 µM to reach half-maximal inhibition (IC50).

`Cl.Cl.Cl.Cl.Nc1cccc(CC2CNCC2NCC2CCCN2)n1` (centres unmarked) [Compound P-25]: in experiment [1], the Ki is 18.5 µM and it took 40.8 µM to reach half-maximal inhibition (IC50). Besides, in experiment [2], the Selectivity n/i stood at 7.58, the Ki is 2.44 µM and the IC50 worked out at 21.2 µM.

For the compound `Cl.Cl.Cl.Cl.Nc1cccc(CC2CNCC2NCC2CCCN2)n1` (centres unmarked) [Compound P-40], in experiment [1], the Ki was 82.4 µM and the IC50 amounted to 182 µM. Also, in experiment [2], the Selectivity n/i was 23.95, the Ki is 3.44 µM and the IC50 was 29.9 µM.

As for `Cl.Cl.Cl.Nc1cccc(C[C@H]2CN(Cc3ccccc3)C[C@H]2NCCCc2ccccc2)n1` (racemic) [Compound P-4], in experiment [1], the Ki is 609 µM and 1340 µM corresponded to half-maximal inhibition (IC50). Further, in experiment [2], the Selectivity n/i was 12.71, the Ki is 47.9 µM and the IC50 amounted to 417 µM.
